{"source": "patent US8426044B2", "about": "“Method for imparting antimicrobial activity to a medical device” (Board of Regents, The University of Texas System, priority 2009, dated 2013)", "origin": "cited, not measured here", "key": {"[1]": {"conditions": "for solubility in organic solvents: organic solvents incl. alcohols, ketones, ethers, aldehydes, acetonitrile, acetic acid, methylene chloride, chloroform"}, "[2]": {"system": "Pseudomonas aeruginosa cells embedded in a biofilm", "conditions": "MBC for the identical strain grown in liquid suspension"}}, "data": [{"smiles": "[H]/N=C(\\N/C(=N/[H])NCCCCCCNC(=N)NC(=N)Nc1ccc(Cl)cc1)Nc1ccc(Cl)cc1", "note": "[Chlorhexidine]", "values": [{"measurement": "solubility in organic solvents", "setting": "[1]", "value": "soluble in both water and organic solutions"}, {"measurement": "solubility in water", "setting": "[1]", "value": "soluble in both water and organic solutions"}]}, {"smiles": "CO[C@H]1/C=C/O[C@@]2(C)Oc3c(C)c(O)c4c(O)c(c(/C=N/N5CCN(C)CC5)c(O)c4c3C2=O)NC(=O)/C(C)=C\\C=C\\[C@H](C)[C@H](O)[C@@H](C)[C@@H](O)[C@@H](C)[C@H](OC(C)=O)[C@@H]1C", "note": "[Rifampin]", "values": [{"measurement": "solubility in organic solvents", "setting": "[1]", "value": "freely soluble in acidic aqueous solutions and organic solutions"}, {"measurement": "solubility in water", "setting": "[1]", "value": "very slightly soluble in water"}]}, {"smiles": "NC[C@H]1O[C@H](O[C@H]2[C@H](O)[C@@H](O[C@H]3O[C@H](CO)[C@@H](O)[C@H](N)[C@H]3O)[C@H](N)C[C@@H]2N)[C@H](N)C[C@@H]1O", "note": "[tobramycin]", "values": [{"measurement": "antibiotic level unable to kill biofilm-embedded cells", "setting": "[2]", "value": "greater than 50 times the minimum bactericidal concentration (MBC)"}]}]}
